# Measured values taken from paper PMC10294644 (Cell, 2020).
# Entries after “also recorded” stand apart in the source; their conditions may differ.
# What was measured:
# YES1 = YES1 (Homo sapiens, UniProt P07947); type: cell-based; details: HEK293T cells, 1 μM, 5 h
# GCK [1] = target: T1, GCK (Homo sapiens, UniProt Q12851); assay: KiNativ live cell profiling; type: cell-based; details: CRBN−/− MOLT-4 cells, 1 μM, 5 h
# T1 sequence (Q12851 1-820): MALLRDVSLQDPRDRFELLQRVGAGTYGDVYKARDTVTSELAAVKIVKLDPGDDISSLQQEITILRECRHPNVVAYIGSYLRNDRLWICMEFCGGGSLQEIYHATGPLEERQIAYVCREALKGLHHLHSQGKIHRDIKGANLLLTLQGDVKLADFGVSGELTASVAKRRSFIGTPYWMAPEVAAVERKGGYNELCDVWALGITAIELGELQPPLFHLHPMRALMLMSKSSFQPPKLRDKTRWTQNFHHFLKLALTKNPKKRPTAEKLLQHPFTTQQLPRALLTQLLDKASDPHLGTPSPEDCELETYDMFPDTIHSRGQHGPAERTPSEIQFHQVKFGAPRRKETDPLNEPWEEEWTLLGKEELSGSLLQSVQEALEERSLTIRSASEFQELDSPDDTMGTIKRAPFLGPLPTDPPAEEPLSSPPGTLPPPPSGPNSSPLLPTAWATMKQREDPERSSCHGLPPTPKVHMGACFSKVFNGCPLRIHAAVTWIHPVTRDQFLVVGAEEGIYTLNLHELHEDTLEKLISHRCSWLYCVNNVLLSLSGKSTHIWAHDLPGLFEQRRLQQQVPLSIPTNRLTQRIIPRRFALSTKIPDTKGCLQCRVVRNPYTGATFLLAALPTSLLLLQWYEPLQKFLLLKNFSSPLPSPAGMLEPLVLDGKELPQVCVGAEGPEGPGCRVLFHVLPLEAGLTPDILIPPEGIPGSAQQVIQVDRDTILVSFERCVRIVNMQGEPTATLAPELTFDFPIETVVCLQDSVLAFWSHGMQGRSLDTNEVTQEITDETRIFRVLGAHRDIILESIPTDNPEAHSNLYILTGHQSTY
# IRAK1 = IRAK1 (Homo sapiens, UniProt P51617); type: cell-based; details: HEK293T cells, 1 μM, 5 h
# LYN = LYN (Homo sapiens, UniProt P07948); type: cell-based; details: HEK293T cells, 1 μM, 5 h
# Chain of LYN (P07948 2-512 limits assumed): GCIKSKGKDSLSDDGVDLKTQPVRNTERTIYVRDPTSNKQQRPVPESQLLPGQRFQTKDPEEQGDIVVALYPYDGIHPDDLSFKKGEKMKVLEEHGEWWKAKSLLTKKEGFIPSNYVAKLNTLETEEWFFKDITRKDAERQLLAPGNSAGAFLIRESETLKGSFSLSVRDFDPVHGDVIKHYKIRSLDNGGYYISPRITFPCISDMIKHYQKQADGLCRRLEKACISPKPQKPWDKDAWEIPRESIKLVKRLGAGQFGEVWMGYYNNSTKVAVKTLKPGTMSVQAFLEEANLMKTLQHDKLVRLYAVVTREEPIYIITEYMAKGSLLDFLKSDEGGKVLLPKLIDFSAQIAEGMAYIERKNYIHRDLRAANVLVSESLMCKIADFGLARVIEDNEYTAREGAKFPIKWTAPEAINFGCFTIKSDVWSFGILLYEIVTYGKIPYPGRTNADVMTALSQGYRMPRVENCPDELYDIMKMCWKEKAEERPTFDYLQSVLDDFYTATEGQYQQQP
# Chain of LYN (Q96SW2 whole entry partner): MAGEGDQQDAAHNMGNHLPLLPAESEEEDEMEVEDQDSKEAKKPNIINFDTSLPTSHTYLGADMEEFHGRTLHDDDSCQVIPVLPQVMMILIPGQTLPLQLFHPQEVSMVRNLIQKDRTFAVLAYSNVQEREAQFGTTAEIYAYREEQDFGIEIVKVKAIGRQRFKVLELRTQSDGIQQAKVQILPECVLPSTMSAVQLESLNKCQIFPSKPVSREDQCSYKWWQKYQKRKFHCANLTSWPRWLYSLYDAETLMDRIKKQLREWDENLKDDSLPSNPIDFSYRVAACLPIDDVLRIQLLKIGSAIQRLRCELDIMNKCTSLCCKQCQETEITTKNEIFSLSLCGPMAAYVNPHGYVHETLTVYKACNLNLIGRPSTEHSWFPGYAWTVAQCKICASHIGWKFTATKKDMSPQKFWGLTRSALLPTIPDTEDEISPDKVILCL
# Chain of LYN (Q16531 2-1140 partner limits assumed): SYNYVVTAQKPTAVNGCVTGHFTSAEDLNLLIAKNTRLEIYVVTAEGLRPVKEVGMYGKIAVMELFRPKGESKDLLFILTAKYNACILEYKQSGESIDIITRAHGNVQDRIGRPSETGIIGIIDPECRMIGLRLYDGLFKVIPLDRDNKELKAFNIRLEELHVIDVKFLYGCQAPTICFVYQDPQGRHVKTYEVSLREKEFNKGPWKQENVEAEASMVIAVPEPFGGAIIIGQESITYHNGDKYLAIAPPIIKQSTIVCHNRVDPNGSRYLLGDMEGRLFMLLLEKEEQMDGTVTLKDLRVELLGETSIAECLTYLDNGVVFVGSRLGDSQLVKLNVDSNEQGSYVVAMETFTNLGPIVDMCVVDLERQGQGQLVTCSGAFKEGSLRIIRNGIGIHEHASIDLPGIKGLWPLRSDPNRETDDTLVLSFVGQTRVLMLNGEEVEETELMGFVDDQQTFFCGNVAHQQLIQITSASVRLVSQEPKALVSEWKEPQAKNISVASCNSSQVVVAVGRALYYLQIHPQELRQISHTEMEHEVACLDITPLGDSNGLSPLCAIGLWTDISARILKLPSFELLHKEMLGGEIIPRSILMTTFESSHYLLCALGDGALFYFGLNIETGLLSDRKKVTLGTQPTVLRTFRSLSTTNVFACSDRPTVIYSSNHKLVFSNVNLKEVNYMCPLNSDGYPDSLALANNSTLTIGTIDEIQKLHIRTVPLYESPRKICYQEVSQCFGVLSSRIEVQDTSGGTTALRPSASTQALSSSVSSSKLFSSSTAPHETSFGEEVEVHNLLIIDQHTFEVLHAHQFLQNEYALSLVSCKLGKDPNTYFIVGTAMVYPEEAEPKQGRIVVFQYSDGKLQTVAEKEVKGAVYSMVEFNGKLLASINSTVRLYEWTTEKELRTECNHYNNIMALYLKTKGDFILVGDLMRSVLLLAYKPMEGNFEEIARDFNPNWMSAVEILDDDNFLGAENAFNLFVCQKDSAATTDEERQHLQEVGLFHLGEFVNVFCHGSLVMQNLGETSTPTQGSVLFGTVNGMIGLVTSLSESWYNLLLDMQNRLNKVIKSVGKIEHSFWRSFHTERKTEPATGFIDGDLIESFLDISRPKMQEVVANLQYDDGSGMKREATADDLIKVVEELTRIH
# GCK [2] = target: T1, GCK; assay: Global quantitative proteomics, degradation of GCK; type: cell-based; details: 1 μM, 5 h
# CSK = CSK (Homo sapiens, UniProt P41240); assay: Global quantitative proteomics; type: cell-based; details: MOLT-4 cells, 1 μM, 5 h
# Chain of CSK (P41240 whole entry): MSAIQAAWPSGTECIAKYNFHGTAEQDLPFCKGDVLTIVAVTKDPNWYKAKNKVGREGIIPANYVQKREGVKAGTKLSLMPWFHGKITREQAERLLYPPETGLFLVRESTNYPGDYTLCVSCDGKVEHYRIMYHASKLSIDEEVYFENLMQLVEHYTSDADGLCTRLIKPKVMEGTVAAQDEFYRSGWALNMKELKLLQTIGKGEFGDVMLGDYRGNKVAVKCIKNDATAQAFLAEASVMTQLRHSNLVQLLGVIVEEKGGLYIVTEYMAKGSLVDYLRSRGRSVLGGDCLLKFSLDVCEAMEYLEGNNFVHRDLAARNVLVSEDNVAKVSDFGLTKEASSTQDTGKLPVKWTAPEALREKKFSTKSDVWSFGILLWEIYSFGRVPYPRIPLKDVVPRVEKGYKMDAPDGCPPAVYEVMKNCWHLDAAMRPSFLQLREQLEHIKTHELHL
# CDK17 = CDK17 (Homo sapiens, UniProt Q00537); assay: Global quantitative proteomics; type: cell-based; details: MOLT-4 cells, 1 μM, 5 h, relative protein abundance
# Chain of CDK17 (Q00537 whole entry): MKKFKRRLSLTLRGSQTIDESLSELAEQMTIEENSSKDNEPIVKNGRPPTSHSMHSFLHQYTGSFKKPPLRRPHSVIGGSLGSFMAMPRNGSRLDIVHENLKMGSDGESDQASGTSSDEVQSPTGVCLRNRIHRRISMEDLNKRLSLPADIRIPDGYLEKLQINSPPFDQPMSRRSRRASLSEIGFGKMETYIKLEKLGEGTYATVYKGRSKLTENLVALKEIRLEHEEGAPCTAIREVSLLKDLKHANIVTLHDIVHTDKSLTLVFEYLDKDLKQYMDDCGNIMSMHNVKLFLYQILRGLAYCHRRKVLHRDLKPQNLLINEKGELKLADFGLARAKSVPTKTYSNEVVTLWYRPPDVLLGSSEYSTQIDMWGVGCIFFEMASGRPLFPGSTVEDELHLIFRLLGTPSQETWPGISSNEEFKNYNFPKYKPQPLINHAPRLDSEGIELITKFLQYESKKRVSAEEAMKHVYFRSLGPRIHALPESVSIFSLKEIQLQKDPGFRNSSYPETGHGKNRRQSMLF
# LIMK2 = LIMK2 (Homo sapiens, UniProt P53671); assay: Global quantitative proteomics; type: cell-based; details: MOLT-4 cells, 1 μM, 5 h, relative protein abundance
# MOLT-4 cells = assay: Time-course RNA-sequencing; type: cell-based, human; details: for transcript levels: 1 μM
# BUB1 = BUB1 (Homo sapiens, UniProt O43683); type: cell-based; details: MOLT-4 and MM.1S cell lines
# Chain of BUB1 (O43683 whole entry): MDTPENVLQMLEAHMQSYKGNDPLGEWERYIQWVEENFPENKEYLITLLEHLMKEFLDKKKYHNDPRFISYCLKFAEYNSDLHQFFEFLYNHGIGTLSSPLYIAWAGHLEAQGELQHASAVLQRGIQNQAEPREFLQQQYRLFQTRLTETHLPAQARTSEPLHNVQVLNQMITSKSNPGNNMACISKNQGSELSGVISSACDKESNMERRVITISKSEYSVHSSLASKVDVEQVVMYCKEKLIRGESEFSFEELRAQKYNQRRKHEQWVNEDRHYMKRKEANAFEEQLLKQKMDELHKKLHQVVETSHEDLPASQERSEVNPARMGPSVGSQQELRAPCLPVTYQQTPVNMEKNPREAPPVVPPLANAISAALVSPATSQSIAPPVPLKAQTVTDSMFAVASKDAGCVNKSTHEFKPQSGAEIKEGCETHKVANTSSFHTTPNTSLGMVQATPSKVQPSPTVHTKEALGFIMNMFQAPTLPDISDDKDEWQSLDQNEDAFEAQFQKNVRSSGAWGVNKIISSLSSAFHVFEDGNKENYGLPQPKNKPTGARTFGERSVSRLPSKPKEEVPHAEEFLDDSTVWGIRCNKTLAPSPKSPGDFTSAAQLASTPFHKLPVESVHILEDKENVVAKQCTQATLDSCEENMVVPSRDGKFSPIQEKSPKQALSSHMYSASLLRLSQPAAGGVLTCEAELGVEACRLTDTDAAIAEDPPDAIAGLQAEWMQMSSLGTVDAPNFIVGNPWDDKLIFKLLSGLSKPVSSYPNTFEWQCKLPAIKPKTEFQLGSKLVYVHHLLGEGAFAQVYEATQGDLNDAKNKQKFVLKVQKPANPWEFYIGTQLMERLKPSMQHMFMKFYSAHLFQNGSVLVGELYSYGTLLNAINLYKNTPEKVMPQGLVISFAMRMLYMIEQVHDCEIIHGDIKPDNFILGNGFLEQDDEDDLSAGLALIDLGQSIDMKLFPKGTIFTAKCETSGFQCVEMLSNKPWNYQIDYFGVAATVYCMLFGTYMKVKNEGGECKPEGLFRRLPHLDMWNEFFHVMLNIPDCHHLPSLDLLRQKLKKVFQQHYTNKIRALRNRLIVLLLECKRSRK
# Chain of BUB1 (Q96SW2 whole entry partner): as the sequence (Q96SW2 whole entry partner) above
# Chain of BUB1 (Q16531 2-1140 partner limits assumed): as the sequence (Q16531 2-1140 partner limits assumed) above
# FLAG-tagged CRBN = FLAG-tagged CRBN (Homo sapiens, UniProt Q96SW2); assay: FLAG-CRBN AP-MS, proteins enriched with CRBN; type: cell-based; details: HEK293T cells, 1 μM, 5 h, relative to SB1-G-187 and WH-10417–099
# Chain of FLAG-tagged CRBN (Q96SW2 whole entry): as the sequence (Q96SW2 whole entry partner) above
# Chain of FLAG-tagged CRBN (Q16531 2-1140 partner limits assumed): as the sequence (Q16531 2-1140 partner limits assumed) above
# AURKA (Aurora A) = target: T2, AURKA (Aurora A) (Homo sapiens, UniProt O14965); assay: Global quantitative proteomics and immunoblot, degradation of AURKA; type: cell-based; details: MOLT-4 cells 1 μM 5 h proteomics; validated by immunoblotting in MM.1S cells
# T2 sequence (O14965 1-403): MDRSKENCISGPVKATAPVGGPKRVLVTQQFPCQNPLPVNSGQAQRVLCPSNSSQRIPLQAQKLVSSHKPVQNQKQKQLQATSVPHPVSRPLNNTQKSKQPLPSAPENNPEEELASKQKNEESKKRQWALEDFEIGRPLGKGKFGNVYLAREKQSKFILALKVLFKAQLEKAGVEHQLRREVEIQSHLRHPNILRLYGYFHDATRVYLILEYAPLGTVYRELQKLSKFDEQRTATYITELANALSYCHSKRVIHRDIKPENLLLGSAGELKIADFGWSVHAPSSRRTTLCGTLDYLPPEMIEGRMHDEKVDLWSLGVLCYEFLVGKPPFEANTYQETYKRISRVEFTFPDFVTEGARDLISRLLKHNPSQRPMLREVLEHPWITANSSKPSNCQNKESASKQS
# [3] = tested on: MM.1S multiple myeloma cell line; assay: CellTiter-Glo viability assay; type: cell-based, human; details: MM.1S cells, 72 h, compared with parental inhibitor alisertib
# Chain of YES1 (P07947 2-543 limits assumed): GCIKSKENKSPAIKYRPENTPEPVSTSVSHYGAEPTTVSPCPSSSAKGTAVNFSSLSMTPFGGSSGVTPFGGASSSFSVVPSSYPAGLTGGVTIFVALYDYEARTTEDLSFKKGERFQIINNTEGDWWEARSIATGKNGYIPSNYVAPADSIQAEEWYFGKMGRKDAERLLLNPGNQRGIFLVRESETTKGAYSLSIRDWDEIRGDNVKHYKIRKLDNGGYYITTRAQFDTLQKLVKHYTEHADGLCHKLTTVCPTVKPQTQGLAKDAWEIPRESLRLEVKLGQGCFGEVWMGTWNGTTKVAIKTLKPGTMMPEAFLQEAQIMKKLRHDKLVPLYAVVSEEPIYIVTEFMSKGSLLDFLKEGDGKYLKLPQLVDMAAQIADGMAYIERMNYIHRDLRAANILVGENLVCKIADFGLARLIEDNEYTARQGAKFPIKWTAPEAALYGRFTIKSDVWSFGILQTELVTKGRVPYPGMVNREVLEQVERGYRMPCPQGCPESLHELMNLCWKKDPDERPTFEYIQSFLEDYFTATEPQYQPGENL
# Chain of YES1 (Q96SW2 whole entry partner): as the sequence (Q96SW2 whole entry partner) above
# Chain of YES1 (Q16531 2-1140 partner limits assumed): as the sequence (Q16531 2-1140 partner limits assumed) above
compound,measurement,setting,value
Cc1ccc(C(=O)Nc2ccc(CN3CCN(CCCOCCOCCOCCNC(=O)COc4cccc5c4C(=O)N(C4CCC(=O)NC4=O)C5=O)CC3)c(C(F)(F)F)c2)cc1C#Cc1cnc2cccnn12 (stereo not shown) [SB1-G-187],YES1 complex formation with CRBN and degradation,YES1,complex formation and degradation
same,"GCK engagement, inhibition of probe binding",GCK [1],94 %I
same,IRAK1 complex formation with CRBN and degradation,IRAK1,complex formation and degradation
same,LYN complex formation with CRBN and degradation,LYN,complex formation and degradation
same,degradation of GCK,GCK [2],degraded
Cc1nc(Nc2ncc(C(=O)Nc3c(C)cccc3Cl)s2)cc(N2CCN(CC(=O)NCCCCNC(=O)COc3cccc4c3C(=O)N(C3CCC(=O)NC3=O)C4=O)CC2)n1 (stereo not shown) [DB-3-291],selectivity among CSK-degrading compounds,CSK,greatest selectivity
same,degradation of CSK,CSK; compared with the 15 library compounds that target CSK,strongest degradation
Cc1ncsc1-c1ccc([C@H](C)NC(=O)[C@@H]2C[C@@H](O)CN2C(=O)[C@@H](NC(=O)CCOCCOCCNc2nccc(-c3sc(C(C)(C)C)nc3-c3cccc(NS(=O)(=O)c4c(F)cccc4F)c3F)n2)C(C)(C)C)cc1 [DD-03–156],degradation of CDK17,CDK17,potent and selective degradation; also recorded: exquisite
same,degradation of LIMK2,LIMK2,potent and selective degradation
CC(C)S(=O)(=O)c1ccccc1Nc1nc(Nc2ccc(N3CCN(CCOCCNC(=O)CNc4cccc5c4C(=O)N(C4CCC(=O)NC4=O)C5=O)CC3)cc2)ncc1Cl (stereo not shown) [SK-3–91],YES1 complex formation with CRBN and degradation,YES1,complex formation does not predict degradation
same,"GCK engagement, inhibition of probe binding",GCK [1],50 %I
same,transcript levels,MOLT-4 cells; 8 and 12 h time points,complete transcriptional collapse
same,transcript levels,MOLT-4 cells; up until the 4 h time point,largely unchanged
same,"transcriptional changes of CAMKK2, DNAPK, IKKe and JAK2",MOLT-4 cells; 4 h treatment,no upregulation
same,degradation of GCK,GCK [2],not degraded
same,degradation of BUB1,BUB1,degraded
same,enriched proteins in the CRBN AP-MS,FLAG-tagged CRBN,fewer enriched proteins
COc1cc(Nc2ncc3c(n2)-c2ccc(Cl)cc2C(c2c(F)cccc2OC)=NC3)ccc1C(=O)NCCCOCCOCCOCCCNC(=O)COc1cccc2c1C(=O)N(C1CCC(=O)NC1=O)C2=O (stereo not shown) [dAURK-4],degradation of AURKA,AURKA (Aurora A),potent and selective degradation
same,antiproliferative effects,[3],superior antiproliferative effects
